Series [1] concerns HeV. It is filed as cell-based, Hendra virus.
Series [2] deals with HeLa cells. Put plainly: Alamar blue assay of metabolic activity. It is filed as cell-based. The note with it: HeLa cells treated for 26 h, vs vehicle or media. On the technique in general: Alamar Blue is a resazurin reagent that responds to reducing activity.
The subject of series [3] is HeLa cells. In words: Cell viability: relative cell numbers (DAPI nuclei count). The note with it: 26 h post-treatment, concentrations resulting in antiviral activity.
Series [4] has as its system HeV-F and HeV-G mediated cell-cell fusion. It is filed as cell-based, Hendra virus.
Series [5] has as its system HeV. It is filed as cell-based, Hendra virus. The source holds these as a separate data set.
Series [6] concerns influenza A virus (A/WSN/33). It is filed as cell-based, Influenza A/WSN/33 (H1N1).
Series [7] relates to HeV. The series is classed as cell-based, Hendra virus. This is another data set of the same source.
For series [8], the system named is vesicular stomatitis virus (VSV). The series is classed as cell-based.
Series [9] deals with NiV. The series is classed as cell-based, Nipah virus.
Series [10] relates to RSV. It is filed as cell-based, RSV (strain A2).
The subject of series [11] is HeV. The series is classed as cell-based, Hendra virus. This is another data set of the same source.

Molecules are shown by their SMILES. Residues, ends and D or L forms follow the SMILES beside them.

Regarding `CCOc1nc2cccc(C(=O)O)c2n1Cc1ccc(-c2ccccc2-c2nnn[nH]2)cc1` [Candesartan], the “HeV infection (HeV titres), dose response” value in series [1] is “inhibited HeV infection in a dose-dependent manner”.

`CCCc1nc2c(C)cc(-c3nc4ccccc4n3C)cc2n1Cc1ccc(-c2ccccc2C(=O)O)cc1` [Telmisartan]: the “change in metabolic activity (Alamar blue)” value in series [2] is reported as “no significant change in metabolic activity”. Moreover, in [3], the “impact on cell numbers” value was “mild impact on cell numbers”. For the same molecule, the “cell-cell fusion of target cells with HeV-F/HeV-G effector cells” value in series [4] is “comparable to target cells treated with vehicle”. Besides, the “viral protein production (P protein and N protein)” value in [5] is recorded as “almost completely abolished”. Further, the “reduction in virus titres, A/WSN/33” value in series [6] was “not for A/WSN/33”. Further, the “intracellular viral RNA levels” value in [7] is “significantly reduced intracellular viral RNA levels”. In addition, in series [1], the “HeV infection (HeV titres), dose response” value is given as “inhibited HeV infection in a dose-dependent manner”; the “reduction in HeV titers” value is about 95%; the “reduction in virus titres, HeV” value was “significant reduction in virus titres”. Besides, the “reduction in virus titres, VSV” value in series [8] is on record as “significant reduction in virus titres”. Besides, the “reduction in virus titres, NiV” value in [9] is recorded as “significant reduction in virus titres”. Besides, the “reduction in virus titres, RSV” value in series [10] is “significant reduction in virus titres”.

As to `CSCC[C@@H](C=O)NC(=O)[C@H](CC(C)C)NC(=O)[C@H](CC(C)C)NC(C)=O` [calpain inhibitor II] (Ac-Leu-Leu-Met-aldehyde), in series [11], the “inhibition of viral protein synthesis (virus antigen levels per well)” value is listed as “more effective than E64D” and the “inhibition of virus-induced cell death (cell numbers per well)” value was “more effective than E64D”.
